Earlier results as cited in patent publication US20150307774A1, “Chelates, chelating agents, conjugates derived thereof and their use” (priority 2012, published 2015).

Conditions: at this pH (7.4), calculated from literature data

In the case of `O=C(O)CN(CCN(CC(=O)O)CC(=O)O)CC(=O)O` [EDTA], the conditional stability constant is given as 14.53 Log units.
